Target: Fibroblast growth factor receptor 3 (Homo sapiens, UniProt P22607)
Assay: Inhibition of N-terminal GST-fused human FGFR3 cytoplasmic domain (436 to 806(end) amino acids) using CSKtide substrate incubated for 90 mins

Chain of Fibroblast growth factor receptor 3 (P22607 whole entry, the tested form may be a part): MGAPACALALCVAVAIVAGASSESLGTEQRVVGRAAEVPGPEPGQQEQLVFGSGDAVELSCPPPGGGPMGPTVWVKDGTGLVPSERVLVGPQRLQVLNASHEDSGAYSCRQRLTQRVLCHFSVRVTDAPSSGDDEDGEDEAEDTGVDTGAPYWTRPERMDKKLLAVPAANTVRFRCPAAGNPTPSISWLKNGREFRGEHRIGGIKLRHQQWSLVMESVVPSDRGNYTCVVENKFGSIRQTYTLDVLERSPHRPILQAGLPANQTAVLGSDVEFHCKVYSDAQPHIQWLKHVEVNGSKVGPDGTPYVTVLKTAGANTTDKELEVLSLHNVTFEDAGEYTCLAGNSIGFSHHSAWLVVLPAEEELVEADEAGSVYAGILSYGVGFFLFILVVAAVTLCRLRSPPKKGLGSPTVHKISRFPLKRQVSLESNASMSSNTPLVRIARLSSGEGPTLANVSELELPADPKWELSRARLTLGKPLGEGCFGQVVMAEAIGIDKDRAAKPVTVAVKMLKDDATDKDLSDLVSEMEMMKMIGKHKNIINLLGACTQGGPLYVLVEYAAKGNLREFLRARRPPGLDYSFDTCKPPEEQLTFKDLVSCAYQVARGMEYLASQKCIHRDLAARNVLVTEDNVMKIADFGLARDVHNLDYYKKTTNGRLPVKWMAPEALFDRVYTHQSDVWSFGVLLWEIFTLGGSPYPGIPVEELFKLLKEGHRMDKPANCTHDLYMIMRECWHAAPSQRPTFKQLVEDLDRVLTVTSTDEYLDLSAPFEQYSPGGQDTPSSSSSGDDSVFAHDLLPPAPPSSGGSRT

- IC50: 150 nM
SMILES: C=CC(=O)Nc1cccc(C)c1Nc1ncc2cc(-c3c(Cl)c(OC)cc(OC)c3Cl)ccc2n1

From ChEMBL document CHEMBL4400505, “Fibroblast Growth Factor Receptor 4 (FGFR4) Selective Inhibitors as Hepatocellular Carcinoma Therapy: Advances and Prospects” (J Med Chem, 2019)
